# Source: patent publication US20250163043A1 (TRANSTHERA SCIENCES (NANJING), INC., priority 2021, published 2025)
# Legend:
# CDK2/CycA2 = CDK2/CycA2 (Homo sapiens, UniProt P24941); assay: ADP-Glo kinase assay on CDK enzymatic activity, CDK2/CycA2; assay type: biochemical; conditions: 10 concentrations from 10 μM, 4-fold, 60 min room temperature
# Procedure, shortened: (§1)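 Ten-point, 4-fold dilution series from 10 μM final was preincubated 10 min with kinase, then 60 min at room temperature with CDKtide substrate and ATP. ADP-Glo luminescence gave inhibition relative to 1 μM AZD4573 and 0.5% DMSO controls; IC50 from curve fitting.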
# CDK3/CycE1 = CDK3/CycE1 (Homo sapiens, UniProt Q00526); assay: ADP-Glo kinase assay on CDK enzymatic activity, CDK3/CycE1; assay type: biochemical; conditions: 10 concentrations from 10 μM, 4-fold, 60 min room temperature
# Procedure, shortened: as §1
# CDK5/p25NCK = CDK5/p25NCK (Homo sapiens, UniProt Q00535); assay: ADP-Glo kinase assay on CDK enzymatic activity, CDK5/p25NCK; assay type: biochemical; conditions: 10 concentrations from 10 μM, 4-fold, 60 min room temperature
# Procedure, shortened: as §1
# CDK9/CycT1 = CDK9/CycT1 (Homo sapiens, UniProt P50750); assay: ADP-Glo kinase assay on CDK enzymatic activity, CDK9/CycT1; assay type: biochemical; conditions: 10 concentrations from 10 μM, 4-fold, 60 min room temperature
# Procedure, shortened: as §1
# [1] = test system: MV-4-11 (human myelomonocytic leukemia cells); assay: CCK-8 cell proliferation assay, MV-4-11; assay type: cell-based; conditions: MV4-11, 24 h incubation, 11 concentrations from 5000 nM, 3-fold, read-out: MV-4-11 cell proliferation IC50 (class)
# Description: Test samples: the compounds of the present invention, having structures shown above.
# MV-4-11 (human myelomonocytic leukemia cells) and NCI-H929 (human myeloma cells).
# The compounds were dissolved in DMSO and diluted 3-fold in the 96-well plate to obtain stock solutions with 11 concentration gradients. Each cell was inoculated into a 96-well plate, and the diluted compound stock solution was added to the 96-well plate to obtain a series of 11 concentration gradients of compound solutions with final concentrations of 5000 nM starting and 3-fold gradient decreasing, wherein the final DMSO content was […]. There was a medium containing 1‰ DMSO in the negative control well. The treated cells were incubated at 37° C. with 5% CO2 and 95% humidity, wherein MV-4-11 were incubated for 24 h and NCI-H929 for 72 h. After incubation was completed, each well was added with 10 μL of CCK-8 reagent, incubated for 1-3 h at room temperature and placed in the microplate reader, and the absorbance was read at 450 nm.
# The inhibition rate was calculated according to the following formula: […]
# ODcmpd: compound absorbance; ODpositive: average value of the absorbance of positive control without compound; ODvehicle: average value of the absorbance of solvent vehicle control.
# IC50 values were fitted using GraphPad 7.0 based on inhibition rates of compounds at different concentrations.
# CDK1/CycE1 = CDK1/CycE1 (Homo sapiens, UniProt P06493); assay: ADP-Glo kinase assay on CDK enzymatic activity, CDK1/CycE1; assay type: biochemical; conditions: ADP-Glo; 10 concentrations from 10 μM, 4-fold; 60 min room temperature; read-out: CDK1/CycE1/nM (IC50)
# Procedure, shortened: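 Compounds in 10-point 4-fold dilutions from 10 μM final, preincubated 10 min with kinase, then substrate/ATP added; 60 min reaction at room temperature. ADP-Glo luminescence read.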
# Chain of CDK3/CycE1 (Q00526 whole entry, species assumed): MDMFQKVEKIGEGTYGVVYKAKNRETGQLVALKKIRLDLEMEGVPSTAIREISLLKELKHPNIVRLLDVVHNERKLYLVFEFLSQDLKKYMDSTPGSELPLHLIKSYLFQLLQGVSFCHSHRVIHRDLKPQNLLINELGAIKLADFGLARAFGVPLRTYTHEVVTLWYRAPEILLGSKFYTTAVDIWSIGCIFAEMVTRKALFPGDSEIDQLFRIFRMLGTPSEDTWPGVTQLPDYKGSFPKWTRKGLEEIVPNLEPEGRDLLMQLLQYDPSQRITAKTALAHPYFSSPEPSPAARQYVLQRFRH
# Chain of CDK3/CycE1 (P24864 whole entry partner, species assumed): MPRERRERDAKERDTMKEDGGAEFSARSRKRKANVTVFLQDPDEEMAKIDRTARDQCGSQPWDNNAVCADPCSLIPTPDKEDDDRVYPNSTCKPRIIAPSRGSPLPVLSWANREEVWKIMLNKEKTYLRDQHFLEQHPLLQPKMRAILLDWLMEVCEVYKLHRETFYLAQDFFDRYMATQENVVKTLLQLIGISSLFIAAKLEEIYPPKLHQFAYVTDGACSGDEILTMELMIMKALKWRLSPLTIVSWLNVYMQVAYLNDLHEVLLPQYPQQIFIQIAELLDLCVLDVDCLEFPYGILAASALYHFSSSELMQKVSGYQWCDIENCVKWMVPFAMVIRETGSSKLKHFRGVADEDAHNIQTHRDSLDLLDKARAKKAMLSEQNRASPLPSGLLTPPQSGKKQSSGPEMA
# Chain of CDK1/CycE1 (P06493 whole entry, species assumed): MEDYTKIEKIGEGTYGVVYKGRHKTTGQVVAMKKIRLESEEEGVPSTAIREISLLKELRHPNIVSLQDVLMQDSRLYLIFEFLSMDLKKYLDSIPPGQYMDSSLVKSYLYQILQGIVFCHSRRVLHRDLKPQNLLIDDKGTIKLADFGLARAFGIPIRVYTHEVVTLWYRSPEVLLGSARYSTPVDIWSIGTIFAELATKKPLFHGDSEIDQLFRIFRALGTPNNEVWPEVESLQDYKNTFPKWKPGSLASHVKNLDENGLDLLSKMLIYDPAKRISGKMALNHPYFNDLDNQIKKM
# Chain of CDK1/CycE1 (P24864 whole entry partner, species assumed): as the sequence (P24864 whole entry partner, species assumed) above
# Chain of CDK9/CycT1 (P50750 whole entry): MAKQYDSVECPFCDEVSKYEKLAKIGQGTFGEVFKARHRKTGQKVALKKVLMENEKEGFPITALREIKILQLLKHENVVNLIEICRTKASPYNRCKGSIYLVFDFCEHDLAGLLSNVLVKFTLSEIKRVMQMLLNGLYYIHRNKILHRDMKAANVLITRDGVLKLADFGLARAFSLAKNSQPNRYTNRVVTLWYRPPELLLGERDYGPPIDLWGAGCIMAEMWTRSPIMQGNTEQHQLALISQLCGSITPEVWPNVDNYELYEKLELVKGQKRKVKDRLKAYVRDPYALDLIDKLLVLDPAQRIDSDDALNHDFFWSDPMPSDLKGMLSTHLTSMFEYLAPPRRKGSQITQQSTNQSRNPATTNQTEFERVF
# Chain of CDK9/CycT1 (O60563 whole entry partner): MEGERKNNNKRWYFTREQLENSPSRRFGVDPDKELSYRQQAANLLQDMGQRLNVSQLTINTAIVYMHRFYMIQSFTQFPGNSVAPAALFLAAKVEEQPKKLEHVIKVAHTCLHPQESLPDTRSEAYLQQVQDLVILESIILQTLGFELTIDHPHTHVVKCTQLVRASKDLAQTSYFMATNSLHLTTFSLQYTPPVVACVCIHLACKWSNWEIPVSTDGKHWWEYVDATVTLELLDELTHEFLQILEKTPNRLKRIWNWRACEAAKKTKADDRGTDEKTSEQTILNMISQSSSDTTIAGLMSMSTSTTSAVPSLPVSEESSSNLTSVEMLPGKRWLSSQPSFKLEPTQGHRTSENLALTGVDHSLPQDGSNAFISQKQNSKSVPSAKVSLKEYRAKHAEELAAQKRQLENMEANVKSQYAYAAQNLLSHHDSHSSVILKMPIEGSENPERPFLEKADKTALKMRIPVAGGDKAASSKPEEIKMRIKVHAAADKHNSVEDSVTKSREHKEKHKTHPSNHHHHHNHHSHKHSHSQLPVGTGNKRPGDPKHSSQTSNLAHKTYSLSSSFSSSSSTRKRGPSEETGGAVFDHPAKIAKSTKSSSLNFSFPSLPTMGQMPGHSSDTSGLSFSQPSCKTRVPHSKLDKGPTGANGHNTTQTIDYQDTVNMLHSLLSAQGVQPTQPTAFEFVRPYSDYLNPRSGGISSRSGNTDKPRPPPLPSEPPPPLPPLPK
# Chain of CDK5/p25NCK (Q00535 whole entry, species assumed): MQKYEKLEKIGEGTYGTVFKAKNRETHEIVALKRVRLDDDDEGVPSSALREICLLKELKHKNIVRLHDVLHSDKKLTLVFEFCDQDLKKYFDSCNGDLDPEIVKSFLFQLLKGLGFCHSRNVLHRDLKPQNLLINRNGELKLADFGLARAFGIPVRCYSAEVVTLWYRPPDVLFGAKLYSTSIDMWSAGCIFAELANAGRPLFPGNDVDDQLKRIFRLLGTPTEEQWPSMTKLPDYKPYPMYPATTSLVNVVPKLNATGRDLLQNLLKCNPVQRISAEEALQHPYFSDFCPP
# Chain of CDK5/p25NCK (Q15078 99-307 partner limits assumed, species assumed): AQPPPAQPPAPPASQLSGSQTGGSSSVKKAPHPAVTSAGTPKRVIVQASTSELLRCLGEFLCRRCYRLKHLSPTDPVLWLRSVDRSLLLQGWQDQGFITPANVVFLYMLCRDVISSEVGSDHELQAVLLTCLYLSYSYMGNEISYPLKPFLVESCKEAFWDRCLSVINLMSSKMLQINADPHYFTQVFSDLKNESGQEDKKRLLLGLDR
SMILES,IC50 (CDK2/CycA2),IC50 (CDK3/CycE1),IC50 (CDK5/p25NCK),IC50 (CDK9/CycT1),IC50 [1],IC50 (CDK1/CycE1)
"CC(=O)N[C@@H]1CC[C@H](Nc2cc3c(NC(C)C)nc(C#N)cc3cn2)C1 [Compound 47, N-((1R,3S)-3-((7-cyano-5-(isopropylamino)-2,6-naphthyridin-3-yl)amino)cyclopentyl)acetamide]",494 nM,987 nM,1050 nM,17 nM,0.4 to 1 µM,
"CC(=O)N[C@@H]1CCC[C@H](C(=O)Nc2cc3c(NC(C)(C)C)nc(C#N)cc3cn2)C1 [Compound 15, (1S,3R)-3-acetamido-N-(5-(tert-butylamino)-7-cyano-2,6-naphthyridin-3-yl)cyclohexane-1-carboxamide]",182 nM,273 nM,770 nM,1 nM,0.4 to 1 µM,
"CC(=O)N[C@@H]1CCC[C@H](C(=O)Nc2cc3c(NC4CC4)nc(C#N)cc3cn2)C1 [Compound 16, (1S,3R)-3-acetamido-N-(7-cyano-5-(cyclopropylamino)-2,6-naphthyridin-3-yl)cyclohexane-1-carboxamide]",1460 nM,951 nM,2500 nM,20 nM,> 1 µM,
"CC(=O)N[C@@H]1CCC[C@H](C(=O)Nc2cc3c(NC(CCO)CCO)nc(C#N)cc3cn2)C1 [Compound 18, (1S,3R)-3-acetamido-N-(7-cyano-5-((1,5-dihydroxypentan-3-yl)amino)-2,6-naphthyridin-3-yl)cyclohexane-1-carboxamide]",3370 nM,> 10000 nM,> 10000 nM,15 nM,> 1 µM,
"CC(C)Nc1nc(C#N)cc2cnc(N[C@H]3CCNC3)cc12 [Compound 31, (S)-1-(isopropylamino)-7-(pyrrolidin-3-ylamino)-2,6-naphthyridine-3-carbonitrile]",594 nM,1300 nM,1480 nM,4 nM,0.4 to 1 µM,
"CC(=O)N[C@@H]1CCC[C@H](C(=O)Nc2cc3c(N4CCC(F)(F)CC4)nc(C#N)cc3cn2)C1 [Compound 23, (1S,3R)-3-acetamido-N-(7-cyano-5-(4,4-difluoropiperidin-1-yl)-2,6-naphthyridin-3-yl)cyclohexane-1-carboxamide]",3870 nM,5650 nM,> 10000 nM,38 nM,> 1 µM,
"CC(C)Nc1nc(C#N)cc2cnc(NC(=O)[C@H]3CCC[C@H](N)C3)cc12 [Compound 27, (1S,3S)-3-amino-N-(7-cyano-5-(isopropylamino)-2,6-naphthyridin-3-yl)cyclohexane-1-carboxamide]",2520 nM,1630 nM,3960 nM,51 nM,0.4 to 1 µM,
"CC(C)Nc1nc(C#N)cc2cnc(N[C@@H]3CN[C@H](CO)C3)cc12 [Compound 37, 7-(((3S,5S)-5-(hydroxymethyl)pyrrolidin-3-yl)amino)-1-(isopropylamino)-2,6-naphthyridine-3-carbonitrile]",520 nM,1130 nM,941 nM,5 nM,> 1 µM,
"CN[C@@H]1CC[C@H](Nc2cc3c(NC(C)C)nc(C#N)cc3cn2)C1 [Compound 32, 1-(isopropylamino)-7-(((1S,3R)-3-(methylamino)cyclopentyl)amino)-2,6-naphthyridine-3-carbonitrile]",1080 nM,2050 nM,1580 nM,7 nM,0.4 to 1 µM,
"CC(C)Nc1nc(C#N)cc2cnc(N[C@@H]3C[C@H]4COC[C@@H](C3)N4)nc12 [Compound 139, 2-(((1R,5S,7r)-3-oxa-9-azabicyclo[3.3.1]nonan-7-yl)amino)-8-(isopropylamino)pyrido[3,4-d]pyrimidine-6-carbonitrile]",,,,6 nM,> 1 µM,
"CC(C)Nc1nc(C#N)cc2cnc(N[C@H]3CCC[C@@H](O)C3)cc12 [Compound 41, 7-(((1S,3R)-3-hydroxycyclohexyl)amino)-1-(isopropylamino)-2,6-naphthyridine-3-carbonitrile]",,90 nM,,6 nM,> 1 µM,

# Continued, values first:
IC50 (CDK2/CycA2),IC50 (CDK3/CycE1),IC50 (CDK5/p25NCK),IC50 (CDK9/CycT1),IC50 [1],IC50 (CDK1/CycE1),SMILES
35 nM,,,3 nM,0.4 to 1 µM,51 nM,"CC(C)Nc1nc(C#N)cc2cnc(N[C@H]3C[C@@H](CO)C3)nc12 [Compound C29, 2-(((1s,3s)-3-(hydroxymethyl)cyclobutyl)amino)-8-(isopropylamino)pyrido[3,4-d]pyrimidine-6-carbonitrile]"
679 nM,,,5 nM,0.4 to 1 µM,398 nM,"N#Cc1cc2cnc(N[C@H]3CCCNC3)cc2c(C2CCCCC2)n1 [Compound 193, (S)-1-cyclohexyl-7-(piperidin-3-ylamino)-2,6-naphthyridine-3-carbonitrile]"
,,,9 nM,> 1 µM,,"CC(C)Nc1nc(C#N)cc2cnc(N[C@H]3CC[C@@H](O)CC3)nc12 [Compound 125, 2-(((1s,4s)-4-hydroxycyclohexyl)amino)-8-(isopropylamino)pyrido[3,4-d]pyrimidine-6-carbonitrile]"
,,,12 nM,> 1 µM,,"CC(C)Nc1nc(C#N)cc2cnc(NC3CCCCC3O)cc12 (stereo not shown) [Compound 143, 7-((2-hydroxycyclohexyl)amino)-1-(isopropylamino)-2,6-naphthyridine-3-carbonitrile]"
,,,14 nM,> 1 µM,,"N#Cc1cc2cnc(N[C@H]3CCCNC3)cc2c(OC2CC2)n1 [Compound 197, (S)-1-cyclopropoxy-7-(piperidin-3-ylamino)-2,6-naphthyridine-3-carbonitrile]"
,,,12 nM,0.4 to 1 µM,,"CC(C)Nc1nc(C#N)cc2cnc(N[C@@H]3CCCNCC3)nc12 [Compound 132, (R)-2-(azepan-4-ylamino)-8-(isopropylamino)pyrido[3,4-d]pyrimidine-6-carbonitrile]"
,29 nM,,4 nM,0.4 to 1 µM,26 nM,"CC(C)Nc1nc(C#N)cc2cnc(N[C@H]3CCC(=O)NC3)nc12 [Compound 106, (S)-8-(isopropylamino)-2-((6-oxopiperidin-3-yl)amino)pyrido[3,4-d]pyrimidine-6-carbonitrile]"
,,,7 nM,> 1 µM,,"CC(C)Nc1nc(C#N)cc2cnc(NC3CNC3)nc12 [Compound 129, 2-(azetidin-3-ylamino)-8-(isopropylamino)pyrido[3,4-d]pyrimidine-6-carbonitrile]"
,,,19 nM,> 1 µM,,"CC(C)Nc1nc(C#N)cc2cnc(N[C@]3(C)C[C@@H](N)C3)nc12 [Compound C27, 2-(((1r,3r)-3-amino-1-methylcyclobutyl)amino)-8-(isopropylamino)pyrido[3,4-d]pyrimidine-6-carbonitrile]"
,,,9 nM,0.4 to 1 µM,,"CC(C)Nc1nc(C#N)cc2cnc(N[C@@H]3CCNC3)nc12 [Compound 113, (R)-8-(isopropylamino)-2-(pyrrolidin-3-ylamino)pyrido[3,4-d]pyrimidine-6-carbonitrile]"
,,,17 nM,0.4 to 1 µM,,"CC(C)Nc1nc(C#N)cc2cnc(N[C@H]3CCNC3)nc12 [Compound 112, (S)-8-(isopropylamino)-2-(pyrrolidin-3-ylamino)pyrido[3,4-d]pyrimidine-6-carbonitrile]"
,,,19 nM,> 1 µM,,"CC(C)(C)Nc1nc(C#N)cc2cnc(NC(=O)[C@H]3CCCNC3)cc12 [Compound 177, (S)—N-(5-(tert-butylamino)-7-cyano-2,6-naphthyridin-3-yl)piperidine-3-carboxamide]"
540 nM,,,2 nM,0.4 to 1 µM,14 nM,"CC(C)Oc1nc(C#N)cc2cnc(N[C@H]3C[C@@H](N)C3)cc12 [Compound 195, 7-(((1s,3s)-3-aminocyclobutyl)amino)-1-isopropoxy-2,6-naphthyridine-3-carbonitrile]"
,,,12 nM,0.4 to 1 µM,,"C[C@]1(N)C[C@H](Nc2cc3c(NC4CC4)nc(C#N)cc3cn2)C1 [Compound 210, 7-((trans)-3-amino-3-methylcyclobutyl)amino-1-(cyclopropylamine)-2,6-naphthyridine-3-carbonitrile]"
,,,7 nM,0.4 to 1 µM,,"CC(C)(C)Nc1nc(C#N)cc2cnc(NC(=O)[C@@H]3CCCNC3)cc12 [Compound 178, (R)—N-(5-(tert-butylamino)-7-cyano-2,6-naphthyridin-3-yl)piperidine-3-carboxamide]"
